Measured values: US8519139B2, “Indazolamides with analgesic activity” (Aziende Chimeche Riunite Angelini Francesco A.C.R.A.F. …, priority 2003, dated 2013)

What was measured:
[1] = tested on: Mechanical hyperalgesia in rats with streptozotocin-induced diabetes (diabetic neuropathy); test: Mechanical hyperalgesia in rats with streptozotocin-induced diabetes; type: in vivo, rat; conditions: male CD rats, dose 10^-5 mol/kg, 2 h after treatment, vehicle 114 ± 2.7, normal animals 240±8.7 g
Description: 2. Mechanical Hyperalgesia in Rats with Streptozotocin-induced Diabetes
Male CD rats weighing 240-300 g on arrival were used.
The diabetic syndrome was induced by means of a single intraperitoneal (i.p.) injection of 80 mg/kg of streptozotocin dissolved in sterile physiological solution [Courteix C, Eschalier A, Lavarenne J. Streptozotocin-induced diabetic rats: behavioural evidence for a model of chronic pain. Pain, 1993; 53: 81-88; Bannon A W, Decker M W, Kim D J, Campbell J E, Arneric S P. ABT-594, a novel cholinergic channel modulator, is efficacious in nerve ligation and diabetic neuropathy models of neuropathic pain. Brain Res. 1998; 801:158-63].
At least three weeks after the injection of streptozotocin, rats with a level of glycemia≧300 mg/dl and with a response threshold to a mechanical nociceptive stimulus ≦120 g were selected. The glycemia levels were measured by means of a reflectometer, using reactive strips impregnated with glucose oxidase. The pain threshold was measured using an analgesimeter. By applying a gradual increase in pressure onto the dorsal area of the left hind paw of the rat, the instrument makes it possible to record the nocifensive response, expressed in grams, corresponding to the moment at which the animal retracts the paw.
Two hours after the treatment, the pain threshold measured in control animals was compared with that measured in animals treated with the test product (dose: 10^−5 mol/kg).
The control animals were treated with the same vehicle (water) used for administering the test products.

[2] = tested on: CFA-induced mechanical hyperalgesia in rats; test: CFA-induced mechanical hyperalgesia in rats; type: in vivo, rat; conditions: male CD rats, dose 10^-5 mol/kg, test 23 hours after injecting the CFA, 1 h after treatment; vehicle 120 ± 6.1, normal animals 155±2.1 g
Description: 1. CFA-induced Mechanical Hyperalgesia in Rats
Male CD rats weighing 150-200 g on arrival were used.
By means of an analgesimeter, rats with a response threshold to a mechanical nociceptive stimulus in the range from 150 to 180 g were selected. By applying a gradual increase in pressure onto the dorsal region of the left hind paw of the rat, the instrument makes it possible to record the nocifensive response, expressed in grams, corresponding to the moment at which the animal retracts the paw [Randall L O and Selitto J J. A method for the measurement of analgesic activity on inflamed tissue. Arch. Int. Pharmacodyn. Ther. 1957; 111: 409-419].
The hyperalgesia was induced by unilateral injection of 150 μl of “Complete Freund's Adjuvant” (CFA) into the surface of the left hind paw of the animal [Andrew D, Greenspan J D. Mechanical and heat sensitization of cutaneous nociceptors after peripheral inflammation in the rat. J Neurophysiol. 1999; 82(5): 2649-2656; Hargreaves K, Dubner R, Brown R, Flores C, Joris J. A new and sensitive method for measuring thermal nociception in cutaneous hyperalgesia. Pain 1988; 32: 77-88].
The test compounds were tested (dose: 10^−5 mol/kg) by performing the test 23 hours after injecting the CFA.
One hour after the treatment, the pain threshold measured in control animals was compared with that measured in animals treated with the test product. The control animals were treated with the same vehicle (water) used for administering the test products.

Compound | Pain threshold (g) 2 h after the treatment [1] | Pain threshold (g) 1 h after the treatment [2]
CC(C)n1nc(C(=O)NCC2CCN(CC(=O)Nc3ccc([N+](=O)[O-])cc3)CC2)c2ccccc21 [AF3R335, N3-((1-(2-oxo-2-((4-nitrophenyl)amino)ethyl)-4-piperidyl)methyl)-1-(1-methylethyl)-1H-indazole-3-carboxamide] | 180 ± 13.0 g | 168 ± 6.8 g
Cc1ccc(S(=O)(=O)O)cc1.O=C(CN1CCC(CNC(=O)c2n[nH]c3ccccc23)CC1)Nc1ccccc1 [AF3R276, N3-((1-(2-oxo-2-(phenylamino)ethyl)-4-piperidyl)methyl)-1H-indazole-3-carboxamide tosylate] | 210 ± 10.9 g | 185 ± 15.9 g
Cc1cccc(C)c1NC(=O)CN1CCC(CNC(=O)c2nn(C(C)C)c3ccccc23)CC1.O=C(O)C(=O)O [AF3R305, N3-((1-(2-oxo-2-((2,6-dimethylphenyl)amino)ethyl)-4-piperidyl)methyl)-1-(1-methylethyl)-1H-indazole-3-carboxamide oxalate] | 189 ± 9.2 g | 174 ± 8.4 g
CC(C)n1nc(C(=O)NCC2CCN(CC(=O)Nc3ccc(N)cc3)CC2)c2ccccc21.Cl.Cl [AF3R292, N3-((1-(2-oxo-2-((4-aminophenyl)amino)ethyl)-4-piperidyl)methyl)-1-(1-methylethyl)-1H-indazole-3-carboxamide dihydrochloride] | 202 ± 8.7 g | 154 ± 11.5 g
CC(C)n1nc(C(=O)NCC2CCN(CC(=O)Nc3ccc(O)cc3)CC2)c2ccccc21.Cl [AF3R278, N3-((1-(2-((4-hydroxyphenyl)amino)-2-oxoethyl)-4-piperidyl)methyl)-1-(1-methylethyl)-1H-indazole-3-arboxamide hydrochloride] | 240 ± 16.5 g | 164 ± 10.2 g
CC(C)n1nc(C(=O)NCC2CCN(CC(=O)Nc3ccc(N(C)C)cc3)CC2)c2ccccc21.Cl.Cl [AF3R301, N3-((1-(2-oxo-2-((4-(dimethylamino)phenyl)amino)ethyl)-4-piperidyl)methyl)-1-(1-methylethyl)-1H-indazole-3-carboxamide dihydrochloride] | 201 ± 13.8 g | 151 ± 10.7 g
CC(C)n1nc(C(=O)NCC2CCN(CC(=O)Nc3ccc(OCc4ccccc4)cc3)CC2)c2ccccc21 [AF3R331, N3-((1-(2-oxo-2-((4-((phenylmethyl)oxy)phenyl)amino)ethyl)-4-piperidyl)methyl)-1-(1-methylethyl)-1H-indazole-3-carboxamide] | 192 ± 11.5 g | 156 ± 8.7 g
Cl.O=C(CN1CCC(CNC(=O)c2nn(Cc3ccccc3)c3ccccc23)CC1)Nc1ccccc1 [AF3R277, N3-((1-(2-oxo-2-(phenylamino)ethyl)-4-piperidyl)methyl)-1-benzyl-1H-indazole-3-carboxamide hydrochloride] | 188 ± 11.0 g | 170 ± 10.7 g
Cc1ccc2[nH]nc(C(=O)NCC3CCN(CC(=O)Nc4ccccc4)CC3)c2c1.Cl [AF3R295, 5-methyl-N-3-((1-(2-oxo-2-(phenylamino)ethyl)-4-piperidyl)methyl)-1H-indazole-3-carboxamide hydrochloride] | 212 ± 14.6 g | 202 ± 17.0 g
Cc1ccc2c(c1)c(C(=O)NCC1CCN(CC(=O)Nc3ccccc3)CC1)nn2C(C)C.Cl [AF3R299, 5-methyl-N-3-((1-(2-oxo-2-(phenylamino)ethyl)-4-piperidyl)methy 1)-1-(1-methylethyl)-1H-indazole-3-carboxamide hydrochloride] | 200 ± 10.7 g | 167 ± 8.5 g
CC(C)n1nc(C(=O)NCC2CCN(CC(=O)Nc3ccccc3)CC2)c2ccccc21.Cl [AF3R172, N3-((1-(2-oxo-2-(phenylamino)ethyl)-4-piperidyl)methyl)-1-(1-methylethyl)-1H-indazole-3-carboxamide hydrochloride] | 186 ± 13.0 g | 175 ± 10.2 g
